Laboratory results reported in US20240034743A9, “TRICYCLIC COMPOUNDS AS EGFR INHIBITORS” (QILU PHARMACEUTICAL CO., LTD., priority 2020, published 2024).
pIC50: −log10 of the molar value. Read-outs that look alike come from different tables or passages of the source.

Key:
EGFR WT (wild type EGFR) = EGFR WT (wild type EGFR) (Homo sapiens (Human), UniProt P00533); assay: In vitro enzymatic TR-FRET (HTRF KinEASE-TK) kinase assay, EGFR WT; type: biochemical; settings: kinase activity, TR-FRET; read-out: EGFR (WT) IC50
Summary of the method: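 Recombinant enzyme preincubated with compound 10 min at room temperature in kinase buffer with 5 mM MgCl2, 1 mM MnCl2, 1 mM DTT. Biotinylated TK substrate plus ATP then added for 40 min. HTRF detection (Sa-XL665, Cryptate antibody) for 1 h; IC50 from 665/615 nm ratio.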

EGFR L858R/T790M/C797S = EGFR L858R/T790M/C797S (Homo sapiens (Human), UniProt P00533, C797S/L858R/T790M); assay: In vitro enzymatic TR-FRET (HTRF KinEASE-TK) kinase assay, EGFR L858R/T790M/C797S; type: biochemical; settings: kinase activity
Protocol: (I) In Vitro Enzymatic Experiment for EGFR WT and EGFR L858R/T790M/C797S
In the assay, the inhibition effect of the compound on the kinase activity of EGFR WT (wild type EGFR) and EGFR L858R/T790M/C797S was tested by adopting a time-resolved fluorescence resonance energy transfer (TR-FRET) method, and half maximal inhibitory concentration IC50 of the compound on the kinase activity of EGFR was obtained.
EGFR recombinase and EGFR L858R/T790M/C797S recombinase, purchased from Signalchem.
HTRF KinEASE-TK kit, purchased from Cisbio.
DTT, MnCl2, and MgCl2, purchased from Sigma.
ATP, purchased from Promega.
Brigatinib, purchased from Selleck.
1) 1× working solution was prepared: 5 mM MgCl2; 1 mM DTT; 1 mM MnCl2 and 1× kinase buffer (in kit).
2) […] of gradiently-diluted compound was transferred to a 384-well plate using Echo 550 (Labcyte).
3) 5 μL of 2× EGFR WT or EGFR L858R/T790M/C797S recombinase solution was added to the 384-well plate, and the plate was incubated at room temperature for 10 min.
4) 5 μL of 2× TK-substrate-biotin substrate solution (containing ATP) was added to the 384-well plate, and the plate was incubated at room temperature for 40 min.
5) 5 μL of assay solution containing Sa-XL 665 HTRF and 5 μL of TK-antibody-Cryptatewas were added to the plate, and the plate was incubated at room temperature for 1 h.
6) The fluorescence signal values at 615 nm and 665 nm were measured for each well using an Envision microplate reader (PerkinElmer).
7) The ratio of fluorescence signal values at 665 nm and 615 nm was calculated for each well.
8) Data analysis was performed using GraphPad Prism software to give the IC50 for compounds.

A431 cells (EGFR WT) = assay: A431 cell proliferation inhibition assay (CellTiter-Glo); type: cell-based; settings: Homo sapiens; for pIC50: A-431, cell proliferation, 72 h, CellTiter-Glo, read-out: A431 EGFR WT IC50; for IC50: A-431, 72 h, read-out: A431 EGFR WT IC50(nM)
Summary of the method: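 Seeded cells grown 24 h, then exposed 72 h (37° C, 5% CO2) to graded compound dilutions at 0.1% DMSO final. Viability read by CellTiter-Glo luminescence after 30 min at room temperature; IC50 fitted from the dose curve.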

[1] = system: Ba/F3_Del19/T790M/C797S cells; assay: Ba/F3_Del19/T790M/C797S cell proliferation inhibition assay (CellTiter-Glo); type: cell-based; settings: Mus musculus; for pIC50: BaF3, cell proliferation, 72 h, CellTiter-Glo, read-out: Ba/F3 (Del19/T790M/C797S) IC50; for IC50: BaF3, 72 h, read-out: Ba/F3 (Del19/T790M/C797S) IC50(nM)
Summary of the method: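 Ba/F3 cells carrying EGFR Del19/T790M/C797S were seeded at 700 cells/well and exposed to serially diluted compound (0.1% DMSO final) for 72 h at 37° C. Viability was read by CellTiter-Glo luminescence to give IC50.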

[2] = system: Ba/F3_L858R/T790M/C797S cells; assay: Ba/F3_L858R/T790M/C797S cell proliferation inhibition assay (CellTiter-Glo); type: cell-based; settings: Mus musculus; for pIC50: BaF3, cell proliferation, 72 h, CellTiter-Glo, read-out: Ba/F3 (L858R/T790M/C797S) IC50; for IC50: BaF3, 72 h, read-out: Ba/F3 (L858R/T790M/C797S) IC50(nM)
Summary of the method: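 Ba/F3 cells engineered to carry EGFR L858R/T790M/C797S, seeded at 700 cells/well, exposed to serially diluted compound (0.1% DMSO final) for 72 h at 37 °C, 5% CO2. Viability read by CellTiter-Glo luminescence after 30 min at room temperature; IC50 from dose-response fit.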

EGFR WT (wild type EGFR), sequence (P00533 25-1210): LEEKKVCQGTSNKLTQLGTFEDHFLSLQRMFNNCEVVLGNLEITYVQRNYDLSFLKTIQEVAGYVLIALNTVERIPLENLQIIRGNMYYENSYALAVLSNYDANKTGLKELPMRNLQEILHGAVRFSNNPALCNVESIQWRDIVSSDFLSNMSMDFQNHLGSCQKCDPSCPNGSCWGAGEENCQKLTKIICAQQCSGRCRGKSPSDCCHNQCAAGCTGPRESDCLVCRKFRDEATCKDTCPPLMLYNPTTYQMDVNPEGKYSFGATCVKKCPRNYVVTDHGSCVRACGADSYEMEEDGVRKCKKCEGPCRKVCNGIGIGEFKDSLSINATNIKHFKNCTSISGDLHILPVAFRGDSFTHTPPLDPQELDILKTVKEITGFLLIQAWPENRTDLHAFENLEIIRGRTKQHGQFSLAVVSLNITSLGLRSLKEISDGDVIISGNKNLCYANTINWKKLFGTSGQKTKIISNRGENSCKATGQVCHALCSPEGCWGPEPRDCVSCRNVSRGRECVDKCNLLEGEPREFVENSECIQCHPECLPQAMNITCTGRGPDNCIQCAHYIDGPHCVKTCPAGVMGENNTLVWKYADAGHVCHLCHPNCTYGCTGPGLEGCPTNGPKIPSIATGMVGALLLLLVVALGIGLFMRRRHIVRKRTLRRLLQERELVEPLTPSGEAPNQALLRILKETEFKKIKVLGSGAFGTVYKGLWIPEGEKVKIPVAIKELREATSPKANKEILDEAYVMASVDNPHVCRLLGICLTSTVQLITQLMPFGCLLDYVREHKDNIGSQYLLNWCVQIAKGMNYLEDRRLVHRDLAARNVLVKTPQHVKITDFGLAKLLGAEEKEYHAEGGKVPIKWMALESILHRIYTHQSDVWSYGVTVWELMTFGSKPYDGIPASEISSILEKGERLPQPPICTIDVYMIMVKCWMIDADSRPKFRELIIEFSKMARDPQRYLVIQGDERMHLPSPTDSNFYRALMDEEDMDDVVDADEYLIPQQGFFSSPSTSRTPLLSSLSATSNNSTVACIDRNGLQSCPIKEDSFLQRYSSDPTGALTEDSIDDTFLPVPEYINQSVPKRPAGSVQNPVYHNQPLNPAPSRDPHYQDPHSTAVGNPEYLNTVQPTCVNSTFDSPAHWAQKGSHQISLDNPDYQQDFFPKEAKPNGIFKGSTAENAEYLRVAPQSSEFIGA
EGFR L858R/T790M/C797S, sequence (P00533 25-1210 T790M/C797S/L858R): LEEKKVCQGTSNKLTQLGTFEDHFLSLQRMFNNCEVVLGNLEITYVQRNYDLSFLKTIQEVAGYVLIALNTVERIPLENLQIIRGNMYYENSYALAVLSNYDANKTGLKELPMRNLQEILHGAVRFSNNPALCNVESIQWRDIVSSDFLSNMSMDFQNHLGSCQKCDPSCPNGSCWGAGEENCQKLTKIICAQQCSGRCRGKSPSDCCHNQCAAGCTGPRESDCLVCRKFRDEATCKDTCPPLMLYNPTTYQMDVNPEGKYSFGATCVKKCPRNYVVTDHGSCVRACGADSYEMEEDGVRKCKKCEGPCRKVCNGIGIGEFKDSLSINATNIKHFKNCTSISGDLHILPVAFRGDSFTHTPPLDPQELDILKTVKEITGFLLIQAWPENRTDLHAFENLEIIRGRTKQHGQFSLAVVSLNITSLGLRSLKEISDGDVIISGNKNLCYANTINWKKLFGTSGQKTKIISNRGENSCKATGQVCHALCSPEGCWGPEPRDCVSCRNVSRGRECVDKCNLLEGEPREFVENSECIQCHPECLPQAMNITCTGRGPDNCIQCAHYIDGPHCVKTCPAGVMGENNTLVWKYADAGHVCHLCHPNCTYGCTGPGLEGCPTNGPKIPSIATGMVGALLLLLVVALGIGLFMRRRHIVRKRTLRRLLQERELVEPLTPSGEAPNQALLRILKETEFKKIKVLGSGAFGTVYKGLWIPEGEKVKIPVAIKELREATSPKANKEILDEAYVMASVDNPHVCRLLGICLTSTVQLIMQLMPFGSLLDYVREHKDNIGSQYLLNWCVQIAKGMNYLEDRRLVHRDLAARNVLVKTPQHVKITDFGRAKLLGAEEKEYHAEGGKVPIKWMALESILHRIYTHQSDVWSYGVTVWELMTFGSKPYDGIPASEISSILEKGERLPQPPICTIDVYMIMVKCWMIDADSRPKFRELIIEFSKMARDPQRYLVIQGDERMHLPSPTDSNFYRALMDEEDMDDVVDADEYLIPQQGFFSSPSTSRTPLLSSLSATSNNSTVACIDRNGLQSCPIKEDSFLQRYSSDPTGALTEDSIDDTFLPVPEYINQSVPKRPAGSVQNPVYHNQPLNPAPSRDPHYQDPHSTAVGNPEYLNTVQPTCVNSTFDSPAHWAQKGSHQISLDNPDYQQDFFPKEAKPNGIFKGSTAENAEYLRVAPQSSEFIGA

Row | Compound | pIC50 (EGFR WT (wild type EGFR)) | pIC50 (EGFR L858R/T790M/C797S) | pIC50 (A431 cells (EGFR WT)) | pIC50 [1] | pIC50 [2] | IC50 (A431 cells (EGFR WT)) | IC50 [1] | IC50 [2]
1 | COc1cc2c(cc1Nc1ncc(Br)c(Nc3ccc4nccnc4c3NS(C)(=O)=O)n1)-c1cccnc1CCN2C(C)C [Compound 116] | 7.00 to 7.30 | 8.00 to 9.00 | 6.00 to 7.00 | 7.30 to 8.00 | 7.00 to 7.30 |  |  | 
2 | COc1cc2c(cc1Nc1ncc(Br)c(Nc3ccc4nccnc4c3NS(C)(=O)=O)n1)-c1cnn(C)c1CCN2C1CCOCC1 [Compound 130] | 8.00 to 9.00 | > 9.00 | 6.00 to 7.00 | > 8.00 | > 8.00 |  |  | 
3 | COc1cc2c(cc1Nc1ncc(Br)c(Nc3ccccc3P(C)(C)=O)n1)-c1cccnc1CCN2C [Compound 99] | 7.00 to 7.30 | 8.00 to 9.00 | 6.00 to 7.00 | 7.30 to 8.00 | 7.30 to 8.00 |  |  | 
4 | COc1ccc(CN2Cc3cc(OC)c(Nc4ncc(Br)c(Nc5ccc6nccnc6c5P(C)(C)=O)n4)cc3-c3cnn(C)c3C2)c(OC)c1 [Compound 57] | 7.00 to 7.30 | 8.00 to 9.00 | 6.00 to 7.00 | 7.30 to 8.00 | 7.00 to 7.30 |  |  | 
5 | COc1cc2c(cc1Nc1ncc(Br)c(Nc3ccc4nccnc4c3NS(C)(=O)=O)n1)-c1cnn(C)c1CCN2CC(F)(F)F [Compound 125] | < 6.00 | 6.00 to 7.00 | 6.00 to 7.00 | > 8.00 | 7.30 to 8.00 |  |  | 
6 | COc1cc2c(cc1Nc1ncc(C3CC3)c(Nc3ccccc3P(C)(C)=O)n1)-c1cnn(C)c1CCN2C [Compound 30] | 7.30 to 8.00 | > 9.00 | 6.00 to 7.00 | 7.30 to 8.00 | 7.00 to 7.30 |  |  | 
7 | COc1cc2c(cc1Nc1ncc(Br)c(Nc3ccc4nccnc4c3NS(C)(=O)=O)n1)-c1cnn(C)c1CCN2C(C)(C)CF [Compound 120] | 7.30 to 8.00 | 8.00 to 9.00 | 6.00 to 7.00 | 7.30 to 8.00 | 7.30 to 8.00 |  |  | 
8 | COc1cc2c(cc1Nc1ncc(Br)c(Nc3ccc4nccnc4c3P(C)(C)=O)n1)-c1cccnc1CCN2C [Compound 108] | 7.30 to 8.00 | > 9.00 | 6.00 to 7.00 | > 8.00 | 7.30 to 8.00 |  |  | 
9 | COc1nc2c(cc1Nc1ncc(Br)c(Nc3ccc4nccnc4c3P(C)(C)=O)n1)-c1cnn(C)c1CCN2C(C)C [Compound 82] | 8.00 to 9.00 | 8.00 to 9.00 |  |  |  | > 1000 nM | 10 to 50 nM | 10 to 50 nM
10 | COc1nc2c(cc1Nc1ncc(Br)c(Nc3ccc4nccnc4c3NS(C)(=O)=O)n1)-c1cnn(C)c1CCN2C(C)C [Compound 86] | 8.00 to 9.00 | 8.00 to 9.00 | 6.00 to 7.00 | > 8.00 | 7.30 to 8.00 |  |  | 
11 | COc1cc2c(cc1Nc1ncc(F)c(Nc3ccccc3P(C)(C)=O)n1)-c1cnn(C)c1CCN2C [Compound 17] | 8.00 to 9.00 | 8.00 to 9.00 | 6.00 to 7.00 | 7.30 to 8.00 | 7.00 to 7.30 |  |  | 
12 | COc1cc2c(cc1Nc1ncc(Br)c(Nc3ccccc3NS(C)(=O)=O)n1)-c1cnn(C)c1CCN2 [Compound 121] | 6.00 to 7.00 | 8.00 to 9.00 |  |  |  | 100 to 1000 nM | < 10 nM | < 10 nM
13 | COc1cc2c(cc1Nc1ncc(C)c(Nc3ccc4nccnc4c3P(C)(C)=O)n1)-c1cnn(C)c1CCN2C [Compound 5] | > 9.00 | > 9.00 | 7.00 to 7.30 | > 8.00 | > 8.00 |  |  | 
14 | COc1ccc(Cn2ncc3c2CCN(C)c2cc(OC)c(Nc4ncc(Br)c(Nc5ccccc5P(C)(C)=O)n4)cc2-3)cc1 [Compound 34] | 7.00 to 7.30 | 8.00 to 9.00 | < 6.00 | 7.30 to 8.00 | 7.30 to 8.00 |  |  | 
15 | COc1cc2c(cc1Nc1ncc(Br)c(Nc3ccc4nccnc4c3N3CCCS3(=O)=O)n1)-c1cnn(C)c1CCN2C(C)C [Compound 118] | 7.30 to 8.00 | 8.00 to 9.00 | 6.00 to 7.00 | 7.30 to 8.00 | 7.30 to 8.00 |  |  | 
16 | COc1cc2c(cc1Nc1ncc(Br)c(Nc3cccnc3P(C)(C)=O)n1)-c1cnn(C)c1CCN2C(C)C [Compound 83] | 8.00 to 9.00 | > 9.00 | 6.00 to 7.00 | > 8.00 | 7.30 to 8.00 |  |  | 
17 | COc1cc2c(cc1Nc1ncc(Br)c(Nc3ccc4nccnc4c3P(C)(C)=O)n1)-c1cnn(C)c1CCN2C1CN(C)C1 [Compound 10] | > 9.00 | > 9.00 | 7.30 to 8.00 | > 8.00 | > 8.00 |  |  | 
18 | COc1cc2c(cc1Nc1ncc(Br)c(Nc3ccccc3P(C)(C)=O)n1)-c1cnn(C)c1CCC2N(C)C (centres unmarked) [Compound 78] | 8.00 to 9.00 | > 9.00 | 6.00 to 7.00 | > 8.00 | 7.30 to 8.00 |  |  | 
19 | COc1cc2c(cc1Nc1ncc(Br)c(Nc3ccc4nccnc4c3C(N)=O)n1)-c1cnn(C)c1CCN2C(C)C [Compound 115] |  | 8.00 to 9.00 | < 6.00 | > 8.00 | 7.30 to 8.00 |  |  | 
20 | COc1cc2c(cc1Nc1ncc(Br)c(Nc3ccc4nccnc4c3P(C)(C)=O)n1)-c1cnn(C)c1CN(C(C)C)C2 [Compound 72] | 8.00 to 9.00 |  |  |  |  | 50 to 100 nM | < 10 nM | 10 to 50 nM
21 | COc1cc2c(cc1Nc1ncc(Cl)c(Nc3cccnc3P(C)(C)=O)n1)-c1cnn(C)c1CCN2C(C)C [Compound 100] | 8.00 to 9.00 |  | 6.00 to 7.00 | 7.30 to 8.00 | 7.30 to 8.00 |  |  | 
22 | COc1cc2c(cc1Nc1ncc(Br)c(Nc3ccccc3P(C)(C)=O)n1)-c1cnn(C)c1CCN2C1CCN(C)CC1 [Compound 47] | 8.00 to 9.00 |  | 7.00 to 7.30 | > 8.00 | 7.30 to 8.00 |  |  | 
23 | COc1cc2c(cc1Nc1ncc(Br)c(Nc3ccccc3N(C)S(C)(=O)=O)n1)-c1cnn(C)c1CCN2C [Compound 4] | 8.00 to 9.00 |  | 6.00 to 7.00 | > 8.00 | > 8.00 |  |  | 
